Assays:
TK-10 = experiment: Cytotoxicity against human TK10 cells assessed as cell growth at 100 uM after 48 hrs by sulforhodamine B assay relative to control; format: functional; settings: TK-10, 48 h, read-out: Activity
ACHN [1] = experiment: Cytotoxicity against human ACHN cells assessed as cell growth at 1 uM after 48 hrs by sulforhodamine B assay relative to control; format: functional; settings: read-out: Activity
HCC 2998 [2] = experiment: Cytotoxicity against human HCC2998 cells assessed as cell growth at 100 uM after 48 hrs by sulforhodamine B assay relative to control; format: functional; settings: HCC 2998, 48 h, read-out: Activity
NCI-H23 = experiment: Cytotoxicity against human NCI-H23 cells assessed as cell growth at 100 uM after 48 hrs by sulforhodamine B assay relative to control; format: functional; settings: NCI-H23, 48 h, read-out: Activity
HCT-116 = experiment: Cytotoxicity against human HCT116 cells assessed as cell growth at 0.1 uM after 48 hrs by sulforhodamine B assay relative to control; format: functional; settings: HCT-116, 48 h, read-out: Activity
NCI-H522 = experiment: Cytotoxicity against human NCI-H522 cells assessed as growth inhibition after 48 hrs by sulforhodamine B assay; format: functional; settings: NCI-H522, 48 h
NCI-H322M = experiment: Cytotoxicity against human NCI-H322M cells assessed as cell growth at 10 uM after 48 hrs by sulforhodamine B assay relative to control; format: functional; settings: read-out: Activity
MDA-MB-231 [3] = experiment: Cytotoxicity against human MDA-MB-231 cells assessed as cell growth at 1 uM after 48 hrs by sulforhodamine B assay relative to control; format: functional; settings: MDA-MB-231, 48 h, read-out: Activity
ACHN [4] = experiment: Cytotoxicity against human ACHN cells assessed as growth inhibition after 48 hrs by sulforhodamine B assay; format: functional
SN12C = experiment: Cytotoxicity against human SN12C cells assessed as cell growth at 100 uM after 48 hrs by sulforhodamine B assay relative to control; format: functional; settings: read-out: Activity
HCC 2998 [5] = experiment: Cytotoxicity against human HCC2998 cells assessed as cell growth at 0.01 uM after 48 hrs by sulforhodamine B assay relative to control; format: functional; settings: HCC 2998, 48 h, read-out: Activity
BT-549 = experiment: Cytotoxicity against human BT549 cells assessed as cell growth at 1 uM after 48 hrs by sulforhodamine B assay relative to control; format: functional; settings: BT-549, 48 h, read-out: Activity
DU-145 = experiment: Cytotoxicity against human DU145 cells assessed as cell growth at 0.01 uM after 48 hrs by sulforhodamine B assay relative to control; format: functional; settings: DU-145, 48 h, read-out: Activity
MCF7 = experiment: Cytotoxicity against human MCF7 cells assessed as cell growth at 1 uM after 48 hrs by sulforhodamine B assay relative to control; format: functional; settings: MCF7, 48 h, read-out: Activity
MDA-MB-468 = experiment: Cytotoxicity against human MDA-MB-468 cells assessed as growth inhibition after 48 hrs by sulforhodamine B assay; format: functional; settings: MDA-MB-468, 48 h
OVCAR-3 = experiment: Cytotoxicity against human OVCAR3 cells assessed as cell growth at 0.1 uM after 48 hrs by sulforhodamine B assay relative to control; format: functional; settings: OVCAR-3, 48 h, read-out: Activity
786-0 = experiment: Cytotoxicity against human 786-0 cells assessed as cell growth at 10 uM after 48 hrs by sulforhodamine B assay relative to control; format: functional; settings: 786-0, 48 h, read-out: Activity
Malme-3M = experiment: Cytotoxicity against human MALME-3M cells assessed as growth inhibition after 48 hrs by sulforhodamine B assay; format: functional
OVCAR-8 = experiment: Cytotoxicity against human OVCAR8 cells assessed as growth inhibition after 48 hrs by sulforhodamine B assay; format: functional; settings: OVCAR-8, 48 h
MOLT-4 = experiment: Cytotoxicity against human MOLT4 cells assessed as cell growth at 0.1 uM after 48 hrs by sulforhodamine B assay relative to control; format: functional; settings: MOLT-4, 48 h, read-out: Activity
UACC-257 [6] = experiment: Cytotoxicity against human UACC257 cells assessed as cell growth at 100 uM after 48 hrs by sulforhodamine B assay relative to control; format: functional; settings: UACC-257, 48 h, read-out: Activity
U-251 = experiment: Cytotoxicity against human U251 cells assessed as cell growth at 1 uM after 48 hrs by sulforhodamine B assay relative to control; format: functional; settings: U-251, 48 h, read-out: Activity
SF-539 = experiment: Cytotoxicity against human SF539 cells assessed as cell growth at 100 uM after 48 hrs by sulforhodamine B assay relative to control; format: functional; settings: SF-539, 48 h, read-out: Activity
COLO 205 = experiment: Cytotoxicity against human COLO205 cells assessed as cell growth at 1 uM after 48 hrs by sulforhodamine B assay relative to control; format: functional; settings: COLO 205, 48 h, read-out: Activity
K562 = experiment: Cytotoxicity against human K562 cells assessed as cell growth at 1 uM after 48 hrs by sulforhodamine B assay relative to control; format: functional; settings: K562, 48 h, read-out: Activity
UACC-257 [7] = experiment: Cytotoxicity against human UACC257 cells assessed as cell growth at 10 uM after 48 hrs by sulforhodamine B assay relative to control; format: functional; settings: UACC-257, 48 h, read-out: Activity
T47D = experiment: Cytotoxicity against human T47D cells assessed as cell growth at 1 uM after 48 hrs by sulforhodamine B assay relative to control; format: functional; settings: read-out: Activity
UO-31 = experiment: Cytotoxicity against human UO31 cells assessed as cell growth at 0.01 uM after 48 hrs by sulforhodamine B assay relative to control; format: functional; settings: UO-31, 48 h, read-out: Activity
MDA-MB-231 [8] = experiment: Cytotoxicity against human MDA-MB-231 cells assessed as growth inhibition after 48 hrs by MTT assay; format: functional, cell-based; settings: MDA-MB-231, 48 h
SF-268 = experiment: Cytotoxicity against human SF268 cells assessed as cell growth at 0.1 uM after 48 hrs by sulforhodamine B assay relative to control; format: functional; settings: SF-268, 48 h, read-out: Activity
SK-MEL-5 [9] = experiment: Cytotoxicity against human SK-MEL-5 cells assessed as cell growth at 100 uM after 48 hrs by sulforhodamine B assay relative to control; format: functional; settings: SK-MEL-5, 48 h, read-out: Activity
HOP-62 = experiment: Cytotoxicity against human HOP62 cells assessed as cell growth at 1 uM after 48 hrs by sulforhodamine B assay relative to control; format: functional; settings: HOP-62, 48 h, read-out: Activity
SK-MEL-5 [10] = experiment: Cytotoxicity against human SK-MEL-5 cells assessed as cell growth at 0.01 uM after 48 hrs by sulforhodamine B assay relative to control; format: functional; settings: SK-MEL-5, 48 h, read-out: Activity
M14 = experiment: Cytotoxicity against human M14 cells assessed as cell growth at 0.01 uM after 48 hrs by sulforhodamine B assay relative to control; format: functional; settings: M14, 48 h, read-out: Activity
HCT-15 = experiment: Cytotoxicity against human HCT15 cells assessed as cell growth at 100 uM after 48 hrs by sulforhodamine B assay relative to control; format: functional; settings: HCT-15, 48 h, read-out: Activity

COc1ccc(C(=O)/C=C/c2cc(-c3ccc(OC)c(OC)c3)n[nH]2)cc1OC
growth at 100 µM (TK-10): -12%
growth at 1 µM (ACHN [1]): 76%
growth at 100 µM (HCC 2998 [2]): -91%
growth at 100 µM (NCI-H23): -21%
growth at 0.1 µM (HCT-116): 88%
GI50 (NCI-H522): 1.69 µM
TGI (NCI-H522): 3.9 µM
growth at 10 µM (NCI-H322M): -9%
growth at 1 µM (MDA-MB-231 [3]): 76%
GI50 (ACHN [4]): 1.59 µM
TGI (ACHN [4]): 3.83 µM
growth at 100 µM (SN12C): -37%
growth at 0.01 µM (HCC 2998 [5]): 107%
growth at 1 µM (BT-549): 75%
growth at 0.01 µM (DU-145): 106%
growth at 1 µM (MCF7): 49%
GI50 (MDA-MB-468): 1.09 µM
TGI (MDA-MB-468): 2.55 µM
growth at 0.1 µM (OVCAR-3): 109%
growth at 10 µM (786-0): -32%
GI50 (Malme-3M): 2.59 µM
TGI (Malme-3M): 6.21 µM
GI50 (OVCAR-8): 2.63 µM
TGI (OVCAR-8): 22.5 µM
growth at 0.1 µM (MOLT-4): 101%
growth at 100 µM (UACC-257 [6]): -70%
growth at 1 µM (U-251): 62%
growth at 100 µM (SF-539): -83%
growth at 1 µM (COLO 205): 82%
growth at 1 µM (K562): 38%
growth at 10 µM (UACC-257 [7]): -41%
growth at 1 µM (T47D): 60%
growth at 0.01 µM (UO-31): 89%
IC50 (MDA-MB-231 [8]): 1.1 µM
growth at 0.1 µM (SF-268): 95%
growth at 100 µM (SK-MEL-5 [9]): -96%
growth at 1 µM (HOP-62): 73%
growth at 0.01 µM (SK-MEL-5 [10]): 96%
growth at 0.01 µM (M14): 89%
growth at 100 µM (HCT-15): -10%

COc1ccc(-c2cc(/C=C/C(=O)c3ccc(N)cc3)[nH]n2)cc1OC
growth at 100 µM (TK-10): -98%
growth at 1 µM (ACHN [1]): 88%
growth at 100 µM (HCC 2998 [2]): -91%
growth at 100 µM (NCI-H23): -51%
growth at 0.1 µM (HCT-116): 101%
GI50 (NCI-H522): 1.65 µM
LC50 (NCI-H522): 6.3 µM
TGI (NCI-H522): 3.22 µM
growth at 10 µM (NCI-H322M): 24%
growth at 1 µM (MDA-MB-231 [3]): 98%
GI50 (ACHN [4]): 1.67 µM
LC50 (ACHN [4]): 6.48 µM
TGI (ACHN [4]): 3.29 µM
growth at 100 µM (SN12C): -90%
growth at 0.01 µM (HCC 2998 [5]): 102%
growth at 1 µM (BT-549): 80%
growth at 0.01 µM (DU-145): 109%
growth at 1 µM (MCF7): 81%
GI50 (MDA-MB-468): 1.55 µM
LC50 (MDA-MB-468): 7.8 µM
TGI (MDA-MB-468): 3.48 µM
growth at 0.1 µM (OVCAR-3): 108%
growth at 10 µM (786-0): -48%
GI50 (Malme-3M): 6.72 µM
LC50 (Malme-3M): 59.2 µM
TGI (Malme-3M): 21.2 µM
GI50 (OVCAR-8): 2.95 µM
LC50 (OVCAR-8): 39 µM
TGI (OVCAR-8): 10.5 µM
growth at 0.1 µM (MOLT-4): 106%
growth at 100 µM (UACC-257 [6]): -96%
growth at 1 µM (U-251): 88%
growth at 100 µM (SF-539): -92%
growth at 1 µM (COLO 205): 98%
growth at 1 µM (K562): 71%
growth at 10 µM (UACC-257 [7]): 39%
growth at 1 µM (T47D): 87%
growth at 0.01 µM (UO-31): 92%
IC50 (MDA-MB-231 [8]): 2.2 µM
growth at 0.1 µM (SF-268): 101%
growth at 100 µM (SK-MEL-5 [9]): -94%
growth at 1 µM (HOP-62): 92%
growth at 0.01 µM (SK-MEL-5 [10]): 99%
growth at 0.01 µM (M14): 95%
growth at 100 µM (HCT-15): -71%

COc1cc2c(cc1OC)C(=O)/C(=C/c1cc(-c3ccc4c(c3)OCO4)n[nH]1)C2
growth at 100 µM (TK-10): -95%
growth at 1 µM (ACHN [1]): 94%
growth at 100 µM (HCC 2998 [2]): -94%
growth at 100 µM (NCI-H23): -78%
growth at 0.1 µM (HCT-116): 105%
GI50 (NCI-H522): 0.25 µM
LC50 (NCI-H522): 3.92 µM
TGI (NCI-H522): 0.871 µM
growth at 10 µM (NCI-H322M): -90%
growth at 1 µM (MDA-MB-231 [3]): 88%
GI50 (ACHN [4]): 1.73 µM
LC50 (ACHN [4]): 6.04 µM
TGI (ACHN [4]): 3.23 µM
growth at 100 µM (SN12C): -96%
growth at 0.01 µM (HCC 2998 [5]): 92%
growth at 1 µM (BT-549): 88%
growth at 0.01 µM (DU-145): 102%
growth at 1 µM (MCF7): 15%
GI50 (MDA-MB-468): 1.07 µM
LC50 (MDA-MB-468): 5.44 µM
TGI (MDA-MB-468): 2.41 µM
growth at 0.1 µM (OVCAR-3): 101%
growth at 10 µM (786-0): -98%
GI50 (Malme-3M): 1.74 µM
LC50 (Malme-3M): 7.43 µM
TGI (Malme-3M): 3.6 µM
GI50 (OVCAR-8): 1.57 µM
LC50 (OVCAR-8): 5.93 µM
TGI (OVCAR-8): 3.05 µM
growth at 0.1 µM (MOLT-4): 99%
growth at 100 µM (UACC-257 [6]): -95%
growth at 1 µM (U-251): 56%
growth at 100 µM (SF-539): -94%
growth at 1 µM (COLO 205): 94%
growth at 1 µM (K562): 62%
growth at 10 µM (UACC-257 [7]): -96%
growth at 1 µM (T47D): 69%
growth at 0.01 µM (UO-31): 86%
IC50 (MDA-MB-231 [8]): 1.6 µM
growth at 0.1 µM (SF-268): 96%
growth at 100 µM (SK-MEL-5 [9]): -97%
growth at 1 µM (HOP-62): 82%
growth at 0.01 µM (SK-MEL-5 [10]): 95%
growth at 0.01 µM (M14): 99%
growth at 100 µM (HCT-15): -69%

Source: ChEMBL document CHEMBL4138123, “Design, synthesis and biological evaluation of novel pyrazolochalcones as potential modulators of PI3K/Akt/mTOR pathway and inducers of apoptosis in breast cancer cells” (Eur J Med Chem, 2017)
